The values below come from US20240150368A1, “ULK INHIBITORS AND METHODS OF USE THEREOF” (Deciphera Pharmaceuticals, LLC, priority 2022, published 2024).

For one assay, the target named is T1, ULK1 kinase (Homo sapiens, UniProt O75385, E37A/K38A).
T1 construct: (residues 1-283; ID NO: 1); purchased Beryllium
T1 sequence (O75385 1-283 E37A/K38A): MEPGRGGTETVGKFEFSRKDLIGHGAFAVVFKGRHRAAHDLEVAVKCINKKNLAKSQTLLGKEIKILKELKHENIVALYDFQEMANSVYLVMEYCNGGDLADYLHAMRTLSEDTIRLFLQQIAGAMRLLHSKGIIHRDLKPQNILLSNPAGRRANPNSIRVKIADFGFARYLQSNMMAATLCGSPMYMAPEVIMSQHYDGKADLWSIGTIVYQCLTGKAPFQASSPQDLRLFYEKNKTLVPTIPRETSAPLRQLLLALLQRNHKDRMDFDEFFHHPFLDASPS
Nature of the assay: Biochemical assay for ULK1 (coupled pyruvate kinase/lactate dehydrogenase assay). The note with it: 1 mM ATP, 0.1 nM ULK1; read-out: ULK1 (inhibition of biochemical activity), IC50. An outline of the steps:
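IC50 values were fitted to percent inhibition, normalised with no-compound and known-inhibitor controls, using rates from 2–3 h of a 6 h read at 30 °C. ADP was coupled through pyruvate kinase/lactate dehydrogenase to NADH loss at 340 nm.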

A further assay concerns the target T2, ULK2 kinase (Homo sapiens, UniProt Q8IYT8).
T2 construct: (residues 1-306 with N-terminal GST and His tag; ID NO: 2); purchased Signal Chem U02-11G
Nature of the assay: Biochemical assay for ULK2 (coupled pyruvate kinase/lactate dehydrogenase assay). The conditions noted are these: 1 mM ATP, 1 nM ULK2; read-out: ULK2 (inhibition of biochemical activity), IC50. As to the method:
Biochemical Assay for ULK2 (SEQ. ID NO: 2)
Activity of ULK2 kinase was determined spectroscopically using a coupled pyruvate kinase/lactate dehydrogenase assay that continuously monitors the ATP hydrolysis-dependent oxidation of NADH (e.g., Schindler et al. Science (2000) 289: 1938-1942). Assays were conducted in 384-well plates (100 μL final volume) using 1 nM ULK2 (Signal Chem U02-11G), 200 μM ULKtide, 1.5 units pyruvate kinase, 2.1 units lactate dehydrogenase, 1 mM phosphoenol pyruvate, 0.28 mM NADH and 1 mM ATP in assay buffer (100 mM Tris, pH 7.5, 15 mM MgCl2, 0.5 mM DTT, 0.1% octyl-glucoside, 0.002% (w/v) BSA, and 0.002% Triton X-100). Inhibition of ULK2 was measured by adding serial diluted test compound (final assay concentration of 1% DMSO). A decrease in absorption at 340 nm was monitored continuously for 6 h at 30° C. on a multi-mode microplate reader (BioTek). The reaction rate was calculated using the 2-3 h time frame. The reaction rate at each concentration of compound was converted to percent inhibition using controls (i.e., reaction with no test compound and reaction with a known inhibitor) and IC50 values were calculated by fitting a four-parameter sigmoidal curve to the data using Prism (GraphPad software).

In assay [1] the test system is ULK kinase substrate ATG13 (pS318-ATG13) in A549 (KRAS mutant) cells. Nature of the assay: pATG13 levels of mutant KRas A549 cells after treatment with ULK inhibitors in combination with trametinib (ELISA). Type of assay: cell-based, human. As to the method: Cellular Inhibition of ULK Kinase Substrate ATG13 Protein pATG13 Levels of Mutant KRas A549 Cells after Treatment with ULK Inhibitors in Combination with Trametinib
A549 (KRAS mutant) human lung cancer cells (6,000 cells/well) were added to a 384-well tissue-culture treated plate in 50 μL of pre-warmed DMEM medium supplemented with 10% characterized fetal bovine serum (Invitrogen, Carlsbad, CA), 100 units/mL penicillin G, and 100 μg/mL streptomycin and allowed to grow overnight at 37° C., 5% CO2, and 95% humidity. The following day, 10 μL of media containing trametinib or DMSO as a control was added to wells. The final concentration of trametinib in wells was 250 nM. A dose response of a test compound (0.6 μL per well) was added. DMSO (0.6 μL) was added to control wells. The plate was briefly shaken to mix wells and then incubated at 37° C. overnight. The next day, the media was aspirated and cells were washed with Dulbecco's Phosphate Buffered Saline (Gibco). Cells were lysed using MPER lysis buffer (Pierce, Rockford, IL) containing Halt Phosphatase and Protease Inhibitors (Pierce, Rockford, IL) and Phosphatase inhibitor cocktail 2 (Sigma, St. Louis, MO) at 4° C. for 10 min with shaking.
Cellular levels of phospho-Serine 318 ATG13 (pATG13) were measured via an ELISA method. Total ATG13 Antibody (Cell Signaling Cat #13273) was used to coat the wells. The plate was incubated at 4° C. overnight and washed with ELISA wash buffer (Biolegend Cat #421601). The wells were then blocked with assay diluent (Biolegend Cat #421203) for 1 h at rt. Plate wells were washed with ELISA wash buffer. Cell lysate was added to wells and incubated at rt for 2 h. Plate wells were washed with ELISA wash buffer. Biotinylated pS318-ATG13 antibody (Rockland Immunochemicals Cat #600-401-C49) was diluted in assay diluent and added to each well and incubated at rt for 1 h. Plate wells were washed with ELISA wash buffer. Streptavidin linked to horseradish peroxidase (Thermo Fisher Cat #21140) was diluted in assay diluent and added to each well and incubated at rt for 1 h. Plate wells were washed with ELISA wash buffer. High sensitivity TMB substrate (Biolegend Cat #421101) was added to each well and incubated at rt for 20 min. The reaction was stopped with 2N Sulfuric Acid. The plate was analyzed at on a plate reader measuring absorbance at 450 nm and 540 nm (background). Signal was calculated by first subtracting the background absorbance at 540 nm from the absorbance at 450 nm for each well. Next, the background corrected absorbance at 450 nm from blank wells was subtracted from test wells. Data was compared to control wells to determine % ATG13 phosphorylation. GraphPad Prism was used to calculate IC50 values.

In the next assay the target is T3, LRRK2 kinase (Homo sapiens, UniProt Q5S007).
T3 construct: (residues 970-2528; ID NO; 3); purchased Thermo Fisher
Kind of assay: Biochemical assay for LRRK2 (coupled pyruvate kinase/lactate dehydrogenase assay). The note with it: 26.4 nM LRRK2, 1 mM ATP; read-out: LRRK2 (inhibition of LRRK2 kinase activity, IC50). As to the method: Biochemical Assay for LRRK2 (SEQ. ID NO. 3)
Activity of LRRK2 kinase was determined spectroscopically using a coupled pyruvate kinase/lactate dehydrogenase assay that continuously monitors the ATP hydrolysis-dependent oxidation of NADH (e.g., Schindler et al. Science (2000) 289: 1938-1942). Assays were conducted in 384-well plates (100 μL final volume) using 26.4 nM LRRK2 (Thermo Fisher), 0.1 mM peptide substrate (RLGRDKYKTLRQIRQ), 1.5 units pyruvate kinase, 2.1 units lactate dehydrogenase, 1 mM phosphoenol pyruvate, 0.28 mM NADH and 1 mM ATP in assay buffer (100 mM Tris, pH 7.5, 15 mM MgCl2, 0.5 mM DTT, 0.004% (w/v) BSA, and 0.004% Triton X-100). Inhibition of LRRK2 was measured by adding serial diluted test compound (final assay concentration of 1% DMSO). A decrease in absorption at 340 nm was monitored continuously for 6 h at 30° C. on a multi-mode microplate reader (BioTek). The reaction rate was calculated using the 2-3 h time frame. The reaction rate at each concentration of compound was converted to percent inhibition using controls (i.e., reaction with no test compound and reaction with a known inhibitor) and IC50 values were calculated using software routines in Prism (GraphPad software).

T2 sequence (Q8IYT8 with tags, fused parts or gaps): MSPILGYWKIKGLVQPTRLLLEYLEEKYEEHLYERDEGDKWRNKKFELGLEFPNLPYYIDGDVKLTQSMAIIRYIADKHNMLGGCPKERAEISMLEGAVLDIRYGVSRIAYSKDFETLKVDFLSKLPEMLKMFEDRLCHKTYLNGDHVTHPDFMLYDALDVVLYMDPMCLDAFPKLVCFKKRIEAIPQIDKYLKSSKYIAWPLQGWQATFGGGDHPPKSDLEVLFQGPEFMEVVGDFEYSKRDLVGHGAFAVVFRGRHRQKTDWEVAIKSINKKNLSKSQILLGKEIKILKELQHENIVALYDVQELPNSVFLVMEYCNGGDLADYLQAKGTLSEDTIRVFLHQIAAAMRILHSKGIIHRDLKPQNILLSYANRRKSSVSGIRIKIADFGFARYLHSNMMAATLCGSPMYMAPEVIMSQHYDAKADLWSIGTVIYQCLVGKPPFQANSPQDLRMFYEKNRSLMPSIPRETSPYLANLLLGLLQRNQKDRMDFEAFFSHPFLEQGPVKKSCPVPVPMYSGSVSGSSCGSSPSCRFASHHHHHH
T3 sequence (Q5S007 with tags, fused parts or gaps): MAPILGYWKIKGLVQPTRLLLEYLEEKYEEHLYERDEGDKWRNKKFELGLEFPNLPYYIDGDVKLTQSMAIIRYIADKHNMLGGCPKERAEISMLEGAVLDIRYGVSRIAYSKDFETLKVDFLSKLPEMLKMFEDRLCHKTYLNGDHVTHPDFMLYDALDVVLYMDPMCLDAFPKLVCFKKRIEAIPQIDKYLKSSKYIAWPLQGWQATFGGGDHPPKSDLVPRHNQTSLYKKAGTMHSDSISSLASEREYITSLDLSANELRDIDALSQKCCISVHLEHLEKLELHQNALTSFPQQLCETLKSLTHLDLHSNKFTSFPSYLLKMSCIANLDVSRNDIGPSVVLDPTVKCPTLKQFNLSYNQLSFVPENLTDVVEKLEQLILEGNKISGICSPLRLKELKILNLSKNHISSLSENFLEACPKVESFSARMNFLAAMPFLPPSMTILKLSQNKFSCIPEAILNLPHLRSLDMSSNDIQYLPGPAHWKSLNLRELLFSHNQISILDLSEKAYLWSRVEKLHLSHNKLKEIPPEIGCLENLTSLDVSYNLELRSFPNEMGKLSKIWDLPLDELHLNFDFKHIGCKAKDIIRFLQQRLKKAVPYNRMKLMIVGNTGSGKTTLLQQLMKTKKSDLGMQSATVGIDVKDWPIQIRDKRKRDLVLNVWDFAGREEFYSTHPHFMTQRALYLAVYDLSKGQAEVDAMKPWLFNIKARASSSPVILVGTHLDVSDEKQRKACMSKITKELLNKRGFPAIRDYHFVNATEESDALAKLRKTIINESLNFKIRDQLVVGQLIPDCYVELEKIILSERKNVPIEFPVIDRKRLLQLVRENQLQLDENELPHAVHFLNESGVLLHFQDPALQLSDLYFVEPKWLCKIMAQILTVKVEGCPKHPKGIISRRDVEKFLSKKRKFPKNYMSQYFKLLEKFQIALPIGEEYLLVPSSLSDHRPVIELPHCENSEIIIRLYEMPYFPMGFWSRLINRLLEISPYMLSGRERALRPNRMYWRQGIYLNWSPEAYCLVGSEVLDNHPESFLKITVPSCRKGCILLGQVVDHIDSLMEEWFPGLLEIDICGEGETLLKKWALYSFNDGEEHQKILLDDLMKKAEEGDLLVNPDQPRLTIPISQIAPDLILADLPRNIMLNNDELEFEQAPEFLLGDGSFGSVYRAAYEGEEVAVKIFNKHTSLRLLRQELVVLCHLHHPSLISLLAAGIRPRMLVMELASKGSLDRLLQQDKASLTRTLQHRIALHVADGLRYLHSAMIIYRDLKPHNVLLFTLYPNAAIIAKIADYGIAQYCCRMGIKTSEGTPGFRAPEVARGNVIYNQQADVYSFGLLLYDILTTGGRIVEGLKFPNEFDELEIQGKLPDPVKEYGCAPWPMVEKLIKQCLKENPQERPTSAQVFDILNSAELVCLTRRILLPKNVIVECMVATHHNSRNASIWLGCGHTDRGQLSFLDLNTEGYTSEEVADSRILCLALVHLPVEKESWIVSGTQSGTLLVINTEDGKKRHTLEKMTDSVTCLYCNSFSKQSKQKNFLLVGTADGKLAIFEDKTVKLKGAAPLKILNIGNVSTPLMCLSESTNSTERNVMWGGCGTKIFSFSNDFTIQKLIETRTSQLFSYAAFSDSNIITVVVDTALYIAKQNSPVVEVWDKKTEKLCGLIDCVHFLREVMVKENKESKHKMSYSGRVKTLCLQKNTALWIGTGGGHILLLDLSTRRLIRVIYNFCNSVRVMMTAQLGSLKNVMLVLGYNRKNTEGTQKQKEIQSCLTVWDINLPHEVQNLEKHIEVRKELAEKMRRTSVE

In the case of `CC/C(Nc1cnn(C(C)C)c1)=C1/C(=O)Nc2ccc(C(C)=O)cc21` [Example 177], the IC50 at ULK1 kinase was 100 to 500 nM; on ULK2 kinase, 100 to 500 nM; in assay [1], above 600 nM; at LRRK2 kinase it was at most 100 nM.
